Experimental data reported in patent publication US20100016250A1, “TOLL-LIKE RECEPTOR 9 AGONISTS” (KYOWA HAKKO KIRIN CO., LTD., priority 2006, published 2010).

Legend:
NF-κB = test: Promoting effect on NF-κB promoter-dependent transcriptional activity (luciferase reporter); format: cell-based, human; settings: BGERKB5 cells (Namalwa KJM-1 with pIF-luc), 5 hours incubation; FIGS. 2 and 3
Method: For the purpose of constructing an evaluation system for determination of NF-κB activity, the following stable transformant cell line was used. NF-κB luciferase reporter plasmid pIF-luc (containing a hygromycin resistant gene expression unit) introduced into cells was prepared by the method described in Japanese Published Unexamined Patent Application No. 169479/00. The plasmid was introduced into a human B-cell line, Namalwa (KJM-1) [Cytotechnology, Vol. 1, p. 151 (1988)], followed by culturing with addition of 0.3 mg/mL hygromycin B to select hygromycin-resistant cells. Among the selected hygromycin-resistant cells, a cell line with which enhancement of luciferase activity by TNF-α (10 ng/mL) stimulation was confirmed (hereinafter referred to as BGERKB5 cells) was used in the following test.
The BGERKB5 cells were suspended in RPMI1640·ITPSG medium having the following composition at a concentration of 1×10^6 cells/mL (hereinafter referred to as the BGERKB5 cell suspension). A test compound was dissolved in phosphate buffer (pH 5) and diluted to a desired concentration with RPMI1640·ITPSG medium to prepare an aqueous solution.
To RPMI1640 medium (Nissui Pharmaceutical Co., Ltd.) were added the following substances at the following concentration or ratio based on the medium (the resulting medium is hereinafter referred to as RPMI1640·ITPSG medium).

IP-10 = settings: BGERKB5 cells, 50 nmol/L, 48 hours, culture supernatant
Method: Enzyme-linked immunosorbent assay (ELISA) of IP-10 can be carried out in the following manner.
As a control test, a control group without addition of a test compound was also prepared.
Measurement of the amount of IP-10 produced by the BGERKB5 cells was carried out using an immunoassay kit (BioSource International, Inc.). A calibration curve was prepared using the preparation attached to the kit, and the amount of IP-10 in the culture supernatant was measured.

CD80 antigen (CD80) = settings: Mock cells, 50 nmol/L, 5 hours; corrected with GAPDH, ratio to solvent control (=1)
Method: (§1) The remaining portion (2.6 mL) of each of the cell suspensions of the four groups used in Test Example 4 was incubated in a 15-mL sterile tube for 5 hours. The cells were collected, and the expression levels of genes of glyceraldehyde-3-phosphoate dehydrogenase (GAPDH), luciferase (NF-κB promoter-derived) (NF-κB-LUC), interleukin 12B (IL12B) and CD80 antigen (CD80) were measured by the quantitative RT-PCR method using SYBR-Green [see Bio Techniques, Vol. 22, p. 130-131, p. 134-138 (1997)].
(§2) That is, the cell suspension of each group remaining in the above test was subjected to the following procedure.
(§3) The cell suspension (1×10^6 cells/mL) of each group (2.6 mL: total cell number 2.6×10^6 cells) was centrifuged using himac CF702 centrifuge (Hitachi Koki Co., Ltd.) at 4° C. at 800 rpm for 10 minutes, and after the supernatant was removed using Pipetman, PBS (2 mL) was added. The obtained cell suspension was further centrifuged using himac CF702 centrifuge (Hitachi Koki Co., Ltd.) at 4° C. at 800 rpm for 10 minutes, and the supernatant was removed using Pipetman to obtain cells.
(§4) Total RNA was extracted from the obtained cells using RNeasy Mini Kit (registered trademark: Qiagen, Inc.) according to the manual attached to the kit. By using the obtained total RNA as a template, cDNA was synthesized in the following manner using Super Script First-strand Synthesis System for RT-PCR (Invitrogen Corp.) according to the manual attached to the kit.
(§5) Ten mmol/L dNTPs mixture solution (1.0 μL) and 0.5 μg/μL oligo(dT)12-18 primer (1.0 μL) were added to the […] (5 μg), and the mixture was diluted with an aqueous solution of diethyl pyrocarbonate (DEPC) to make a total volume of 10.0 μL. The obtained solution was heated at 65° C. for 5 minutes, then rapidly cooled on ice, and allowed to stand for more than one minute for denaturation.

interleukin 12B (IL12B) = settings: Mock cells, 50 nmol/L, 5 hours; corrected with GAPDH, ratio to solvent control (=1)
Method: as §1, §2, §3, §4, §5

[1] = system: luciferase (NF-κB promoter-derived) (NF-κB-LUC); settings: Mock cells, 50 nmol/L, 5 hours; corrected with GAPDH, ratio to solvent control (=1)
Method: as §1, §2, §3, §4, §5

[2] = system: glyceraldehyde-3-phosphate dehydrogenase (GAPDH); settings: Mock cells, 50 nmol/L, 5 hours; GAPDH is the internal standard regarded as 1; solvent control = 1
Method: as §1, §2, §3, §4, §5

TLR9 = TLR9 (Homo sapiens, UniProt Q9NR96); settings: BGERKB5 cells without siRNA (Mock), 50 nmol/L, 5 hours
Sequence of TLR9 (Q9NR96 26-1032): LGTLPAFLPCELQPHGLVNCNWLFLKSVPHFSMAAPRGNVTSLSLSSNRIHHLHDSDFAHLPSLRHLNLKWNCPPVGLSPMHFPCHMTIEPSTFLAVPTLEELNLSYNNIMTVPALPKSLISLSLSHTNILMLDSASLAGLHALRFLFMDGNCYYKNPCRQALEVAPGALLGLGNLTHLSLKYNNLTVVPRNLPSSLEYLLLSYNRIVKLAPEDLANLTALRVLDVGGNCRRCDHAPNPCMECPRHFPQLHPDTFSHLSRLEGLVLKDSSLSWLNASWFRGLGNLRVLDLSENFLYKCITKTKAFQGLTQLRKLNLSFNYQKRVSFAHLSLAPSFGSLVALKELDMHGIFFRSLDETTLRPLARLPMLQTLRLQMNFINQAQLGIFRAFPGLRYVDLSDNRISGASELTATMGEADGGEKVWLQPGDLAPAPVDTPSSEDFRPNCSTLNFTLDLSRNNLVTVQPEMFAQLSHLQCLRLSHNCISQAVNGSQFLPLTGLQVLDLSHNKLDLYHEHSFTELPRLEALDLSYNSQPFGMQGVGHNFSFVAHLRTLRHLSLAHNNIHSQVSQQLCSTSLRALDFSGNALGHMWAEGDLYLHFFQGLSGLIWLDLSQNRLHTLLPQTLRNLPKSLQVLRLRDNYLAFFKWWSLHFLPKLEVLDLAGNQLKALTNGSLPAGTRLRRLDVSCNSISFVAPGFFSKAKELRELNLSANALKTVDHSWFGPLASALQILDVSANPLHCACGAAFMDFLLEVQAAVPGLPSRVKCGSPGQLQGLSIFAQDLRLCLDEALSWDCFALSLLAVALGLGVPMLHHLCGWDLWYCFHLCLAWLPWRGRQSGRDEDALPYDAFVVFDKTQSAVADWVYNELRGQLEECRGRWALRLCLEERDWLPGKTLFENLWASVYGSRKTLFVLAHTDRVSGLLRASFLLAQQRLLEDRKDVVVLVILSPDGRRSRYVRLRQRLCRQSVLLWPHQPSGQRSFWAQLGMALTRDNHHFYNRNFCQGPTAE
Method: A knockdown test of TLR9 using siRNA in BGERKB5 cells can be carried out in the following manner.
A BGERKB5 cell suspension (0.5 mL) having a concentration of 4×10^5 cells/mL obtained according to the method described in Test Example 1 was seeded into 6 wells of a 24-well plate (total cell number: 1.2×10^6 cells), followed by incubation in a CO2 incubator at 37° C. for 24 hours.
Then, siRNA against TLR9 (Ambion, Inc., pre-designed siRNA, ID#6055, Cat. 16704, Lot. 047951si) was introduced in an amount of 100 pmol per well using lipofectamine 2000 (Invitrogen Corp.).
Twenty-four hours after the siRNA introduction, the medium was replaced with a fresh one, followed by further incubation for 48 hours. The obtained cells were collected in a sterile tube and suspended in RPMI1640·ITPSG medium at a concentration of 1×10^6 cells/mL (TLR9 kd group). “Mock group” containing no siRNA was prepared in the same manner as in the preparation of “TLR9 kd group”. […]
A 400-μL portion from each of the cell suspensions of the four groups (3 mL) was seeded in quadruplicate 100 μL aliquots into a 96-well plate, followed by incubation for 5 hours. Steady-Glo (Promega Corp.) (100 μL) was added and the luciferase activity (RLU) in each well was measured using Multilabel Counter ARVO (Perkin-Elmer Corp.).

CD80 = settings: BGERKB5 cells, 50 nmol/L, 12 hours
Method: (§6) Flow cytometry analysis of CD40, CD80, CD86, etc., which are co-stimulating molecules important for the activation of lymphocytes, can be carried out in the following manner.
(§7) The BGERKB5 cell suspension having a concentration of 1.1×10^6 cells/mL obtained in Test Example 1 (90 μL) was put into wells of a 96-well plate containing an aqueous solution of a test compound prepared according to the method described in Test Example 1 (10 μL) (final concentration: 50 nmol/L), followed by incubation in a CO2 incubator at 37° C. for 12 hours (test compound group). As a control test, a control group without addition of a test compound was also prepared.
(§8) The following experiments were carried out at a temperature not more than 4° C. The cells were washed twice with 200 μL of phosphate buffer (PBS) containing 1% bovine serum albumin (Fraction V, Sigma) and 0.05% sodium azide, followed by replacement with the same buffer (100 μL). A phycoerythrin-labeled mouse anti-human CD40 monoclonal antibody solution (BD Biosciences), a phycoerythrin-labeled mouse anti-human CD80 monoclonal antibody solution (BD Biosciences) or a phycoerythrin-labeled mouse anti-human CD86 monoclonal antibody solution (BD Biosciences) (2 μL) was added to the cells, and after stirring, the cells were allowed to stand in the dark for 50 minutes.
(§9) The cells were washed twice with 200 μL of phosphate buffer (PBS) containing 1% bovine serum albumin (Fraction V, Sigma) and 0.05% sodium azide, followed by replacement with the same buffer (500 μL).
(§10) The cell count was determined using EPICS XL-MCL (Beckman Coulter, Inc., excitation wavelength 488 nm, argon laser) as a flow cytometer and a positive cell ratio was calculated. As a measurement software, System 2 version 3.0 (Beckman Coulter, Inc.) was used.

CD86 = settings: BGERKB5 cells, 50 nmol/L, 12 hours
Method: as §6, §7, §8, §9, §10

CD40 = settings: BGERKB5 cells, 50 nmol/L, 12 hours
Method: as §6, §7, §8, §9, §10

**Q.** For `CC(=O)OCCC1OC(OP(=O)(O)OP(=O)(O)OCC2OC(n3cnc4c(N)ncnc43)C(O)C2O)C(OC(C)=O)C(OC(C)=O)C1OC(C)=O` [Compound 1, Adenosine=5′-(2,3,4,7-tetra-O-acetyl-6-deoxy-β-D-mannoheptopyranosyl)diphosphate], which “luciferase activity (RLU), activating effect on NF-κB” value (shortened to “luciferase activity (RLU) … on NF-κB”) (NF-κB) is on record?
**A.** enhancement of luciferase activity was confirmed

**Q.** What does the source list for “Adenosine=5′-(6-deoxy-β-D-mannoheptopyranosyl)-α, β-methylene diphosphate [Compound 30]”?
**A.** luciferase activity (RLU), activating effect on NF-κB (NF-κB): enhancement of luciferase activity was confirmed; amount of IP-10 produced (IP-10): 821 pg/mL

**Q.** How did the “luciferase activity (RLU) … on NF-κB” value (NF-κB) turn out when `CC(=O)OC[C@@H](OC(C)=O)[C@H]1O[C@@H](OP(=O)(O)OP(=O)(O)OC[C@H]2O[C@@H](n3cnc4c(N)ncnc43)[C@H](O)[C@@H]2O)[C@@H](OC(C)=O)[C@@H](OC(C)=O)[C@@H]1OC(C)=O` [Compound 14, Adenosine=5′-(2,3,4,6,7-penta-O-acetyl-D-glycero-β-D-mannoheptopyranosyl)diphosphate] was run?
**A.** enhancement of luciferase activity was confirmed

**Q.** `CC(=O)OCC(OC(C)=O)C1OC(OP(=O)(O)OP(=O)(O)OCC2OC(n3cnc4c(N)ncnc43)C(O)C2O)C(OC(C)=O)C(OC(C)=O)C1OC(C)=O` [Compound 10, Adenosine=5′-(2,3,4,6,7-penta-O-acetyl-L-glycero-β-D-mannoheptopyranosyl)diphosphate] was tested. Which “luciferase activity (RLU) … on NF-κB” value (NF-κB) did it give?
**A.** enhancement of luciferase activity was confirmed

**Q.** Which “luciferase activity (RLU) … on NF-κB” value (NF-κB) does the source give for `Nc1ncnc2c1ncn2[C@@H]1O[C@H](COP(=O)(O)OP(=O)(O)O[C@@H]2OC([C@@H](O)CO)[C@@H](O)C(O)C2O)C(O)C1O` (stereo partly drawn) [Compound 12, Adenosine=5′-(L-glycero-β-D-mannopyranosyl)diphosphate] here?
**A.** enhancement of luciferase activity was confirmed

**Q.** `Nc1ncnc2c1ncn2C1OC(COP(=O)(O)OP(=O)(O)OC2OC(CCO)C(O)C(O)C2O)C(O)C1O` [Compound 2, Adenosine=5′-(6-deoxy-β-D-mannoheptopyranosyl)diphosphate] was tested. Which “luciferase activity (RLU) … on NF-κB” value (NF-κB) did it give?
**A.** enhancement of luciferase activity was confirmed

**Q.** With `Nc1ncnc2c1ncn2[C@@H]1O[C@H](COP(=O)(O)OP(=O)(O)O[C@@H]2O[C@H]([C@H](O)CO)[C@@H](O)[C@H](O)[C@@H]2O)[C@@H](O)[C@H]1O` [Compound 16, Adenosine=5′-(D-glycero-β-D-mannoheptopyranosyl)diphosphate] as the compound, how does the “relative mRNA expression level, CD80, Mock” value (CD80 antigen (CD80)) read?
**A.** 127

**Q.** And the “relative mRNA expression level, IL12B, Mock” value (interleukin 12B (IL12B))?
**A.** 1.4

**Q.** And the “relative mRNA expression level, NF-κB-LUC, Mock” value [1]?
**A.** 59.7

**Q.** And the “relative mRNA expression level, GAPDH, Mock” value [2]?
**A.** 1.0

**Q.** What about the “luciferase activity (RLU) … on NF-κB” value (NF-κB) of the same compound?
**A.** enhancement of luciferase activity was confirmed

**Q.** What about the “Luciferase activity (RLU) (mean ± standard error), Mock” value (TLR9) of the same compound?
**A.** 7196.7 ± 88.8 RLU

**Q.** And the “amount of IP-10 produced” value (IP-10)?
**A.** 1441 pg/mL

**Q.** And the “Positive cell ratio (%) CD80” value (CD80)?
**A.** 45.7%

**Q.** And the “Positive cell ratio (%) CD86” value (CD86)?
**A.** 78.4%

**Q.** What about the “Positive cell ratio (%) CD40” value (CD40) of the same compound?
**A.** 93.6%
